# Results reported in ChEMBL document CHEMBL3885861, “Open TG-GATES”.
# Species on record: Rattus norvegicus
# Test: Open TG-GATES - Regimen: Daily Repeat
# Assay type: toxicity, organism-based, Sprague-Dawley
# Design: regimen Daily Repeat, gender Male, age 6 weeks
# Details: in vivo, po, 0 mg/kg, route gavage, dose level Control; for APTT / Bas / Eos / Fbg / Hb / Ht / Lym / MCH / MCHC / MCV / Mono / Neu / PT / Plat / RBC / Ret / WBC: tissue Blood; for KIDNEY_L / KIDNEY_R / KIDNEY_TOTAL: tissue Kidney; for LIVER: tissue Liver; for A/G / ALP / ALT / AST / BUN / CRE / Ca / Cl / DBIL / GLC / IP / K / LDH / Na / PL / RALB / TBIL / TC / TG / TP / gamma-GTP: tissue Plasma
smiles,measurement,setting,value
COC1=CC(=O)C[C@@H](C)[C@]12Oc1c(Cl)c(OC)cc(OC)c1C2=O [GRISEOFULVIN],TERMINAL_BW,"72 h, time 3 day",226.2 g
same,APTT,"72 h, time 3 day",20.3 s
same,Bas,"72 h, time 3 day",0%
same,Eos,"72 h, time 3 day",1%
same,Fbg,"72 h, time 3 day",209.6 mg/dL
same,Hb,"72 h, time 3 day",12.8 g/dL
same,Ht,"72 h, time 3 day",38%
same,Lym,"72 h, time 3 day",81.8%
same,MCH,"72 h, time 3 day",21.4 pg
same,MCHC,"72 h, time 3 day",33.6%
same,MCV,"72 h, time 3 day",63.5 fL
same,Mono,"72 h, time 3 day",2.4%
same,Neu,"72 h, time 3 day",15%
same,PT,"72 h, time 3 day",13.1 s
same,Plat,"72 h, time 3 day",133.8 x10_4/uL
same,RBC,"72 h, time 3 day",598.2 x10_4/ul
same,Ret,"72 h, time 3 day",6.7%
same,WBC,"72 h, time 3 day",92 x10_2/uL
same,KIDNEY_L,"72 h, time 3 day",0.9 g
same,KIDNEY_R,"72 h, time 3 day",0.9 g
same,KIDNEY_TOTAL,"72 h, time 3 day",1.9 g
same,LIVER,"72 h, time 3 day",10.4 g
same,A/G,"72 h, time 3 day",1.6
same,ALP,"72 h, time 3 day",917.8 IU/L
same,ALT,"72 h, time 3 day",35 IU/L
same,AST,"72 h, time 3 day",66.2 IU/L
same,BUN,"72 h, time 3 day",14.6 mg/dL
same,CRE,"72 h, time 3 day",0.4 mg/dL
same,Ca,"72 h, time 3 day",10.6 mg/dL
same,Cl,"72 h, time 3 day",104.4 meq/L
same,DBIL,"72 h, time 3 day",0.1 mg/dL
same,GLC,"72 h, time 3 day",210.8 mg/dL
same,IP,"72 h, time 3 day",7.7 mg/dL
same,K,"72 h, time 3 day",4 meq/L
same,LDH,"72 h, time 3 day",154 IU/L
same,Na,"72 h, time 3 day",141 meq/L
same,PL,"72 h, time 3 day",130.6 mg/dL
same,RALB,"72 h, time 3 day",3.3 g/dL
same,TBIL,"72 h, time 3 day",0.2 mg/dL
same,TC,"72 h, time 3 day",69 mg/dL
same,TG,"72 h, time 3 day",79 mg/dL
same,TP,"72 h, time 3 day",5.3 g/dL
same,gamma-GTP,"72 h, time 3 day",1.2 IU/L
same,TERMINAL_BW,"[…], time 7 day",261.4 g
same,TERMINAL_BW,"[…], time 14 day",310.7 g
same,TERMINAL_BW,"[…], time 28 day",391 g
same,APTT,"[…], time 7 day",18.8 s
same,Bas,"[…], time 7 day",0%
same,Eos,"[…], time 7 day",0.8%
same,Fbg,"[…], time 7 day",236 mg/dL
same,Hb,"[…], time 7 day",14.1 g/dL
same,Ht,"[…], time 7 day",42%
same,Lym,"[…], time 7 day",78%
same,MCH,"[…], time 7 day",21.7 pg
same,MCHC,"[…], time 7 day",33.6%
same,MCV,"[…], time 7 day",64.8 fL
same,Mono,"[…], time 7 day",3%
same,Neu,"[…], time 7 day",17.4%
same,PT,"[…], time 7 day",12.3 s
same,Plat,"[…], time 7 day",122.6 x10_4/uL
same,RBC,"[…], time 7 day",647.4 x10_4/ul
same,Ret,"[…], time 7 day",5.2%
same,WBC,"[…], time 7 day",117.8 x10_2/uL
same,APTT,"[…], time 14 day",19.7 s
same,Bas,"[…], time 14 day",0%
same,Eos,"[…], time 14 day",1%
same,Fbg,"[…], time 14 day",226.2 mg/dL
same,Hb,"[…], time 14 day",14.1 g/dL
same,Ht,"[…], time 14 day",42.2%
same,Lym,"[…], time 14 day",81.2%
same,MCH,"[…], time 14 day",20.8 pg
same,MCHC,"[…], time 14 day",33.4%
same,MCV,"[…], time 14 day",62.2 fL
same,Mono,"[…], time 14 day",3%
same,Neu,"[…], time 14 day",14.4%
same,PT,"[…], time 14 day",12.4 s
same,Plat,"[…], time 14 day",117 x10_4/uL
same,RBC,"[…], time 14 day",678.6 x10_4/ul
same,Ret,"[…], time 14 day",3%
same,WBC,"[…], time 14 day",116.8 x10_2/uL
same,APTT,"[…], time 28 day",20.6 s
same,Bas,"[…], time 28 day",0%
same,Eos,"[…], time 28 day",0.8%
same,Fbg,"[…], time 28 day",220 mg/dL
same,Hb,"[…], time 28 day",15.2 g/dL
same,Ht,"[…], time 28 day",44.8%
same,Lym,"[…], time 28 day",82.4%
same,MCH,"[…], time 28 day",19.7 pg
same,MCHC,"[…], time 28 day",34%
same,MCV,"[…], time 28 day",58 fL
same,Mono,"[…], time 28 day",2%
same,Neu,"[…], time 28 day",14%
same,PT,"[…], time 28 day",12.3 s
same,Plat,"[…], time 28 day",115.6 x10_4/uL
same,RBC,"[…], time 28 day",774.2 x10_4/ul
same,Ret,"[…], time 28 day",2.7%
same,WBC,"[…], time 28 day",130.8 x10_2/uL
same,KIDNEY_L,"[…], time 7 day",1.1 g
same,KIDNEY_R,"[…], time 7 day",1.2 g
same,KIDNEY_TOTAL,"[…], time 7 day",2.3 g
same,KIDNEY_L,"[…], time 14 day",1.2 g
same,KIDNEY_R,"[…], time 14 day",1.2 g
same,KIDNEY_TOTAL,"[…], time 14 day",2.4 g
same,KIDNEY_L,"[…], time 28 day",1.4 g
same,KIDNEY_R,"[…], time 28 day",1.4 g
same,KIDNEY_TOTAL,"[…], time 28 day",2.8 g
same,LIVER,"[…], time 7 day",12.6 g
same,LIVER,"[…], time 14 day",13.6 g
same,LIVER,"[…], time 28 day",16.1 g
same,A/G,"[…], time 7 day",1.6
same,ALP,"[…], time 7 day",944.2 IU/L
same,ALT,"[…], time 7 day",41.2 IU/L
same,AST,"[…], time 7 day",81 IU/L
same,BUN,"[…], time 7 day",14.6 mg/dL
same,CRE,"[…], time 7 day",0.4 mg/dL
same,Ca,"[…], time 7 day",10.8 mg/dL
same,Cl,"[…], time 7 day",103.4 meq/L
same,DBIL,"[…], time 7 day",0.1 mg/dL
same,GLC,"[…], time 7 day",206.8 mg/dL
same,IP,"[…], time 7 day",7.4 mg/dL
same,K,"[…], time 7 day",3.9 meq/L
same,LDH,"[…], time 7 day",155.4 IU/L
same,Na,"[…], time 7 day",142.2 meq/L
same,PL,"[…], time 7 day",146.6 mg/dL
same,RALB,"[…], time 7 day",3.5 g/dL
same,TBIL,"[…], time 7 day",0.2 mg/dL
same,TC,"[…], time 7 day",75.8 mg/dL
same,TG,"[…], time 7 day",112.2 mg/dL
same,TP,"[…], time 7 day",5.8 g/dL
same,gamma-GTP,"[…], time 7 day",1.2 IU/L
same,A/G,"[…], time 14 day",1.5
same,ALP,"[…], time 14 day",820.2 IU/L
same,ALT,"[…], time 14 day",32.8 IU/L
same,AST,"[…], time 14 day",55.8 IU/L
same,BUN,"[…], time 14 day",15 mg/dL
same,CRE,"[…], time 14 day",0.5 mg/dL
same,Ca,"[…], time 14 day",10.6 mg/dL
same,Cl,"[…], time 14 day",102.4 meq/L
same,DBIL,"[…], time 14 day",0.1 mg/dL
same,GLC,"[…], time 14 day",236 mg/dL
same,IP,"[…], time 14 day",7.3 mg/dL
same,K,"[…], time 14 day",4.2 meq/L
same,LDH,"[…], time 14 day",130.6 IU/L
same,Na,"[…], time 14 day",139.8 meq/L
same,PL,"[…], time 14 day",145.8 mg/dL
same,RALB,"[…], time 14 day",3.5 g/dL
same,TBIL,"[…], time 14 day",0.2 mg/dL
same,TC,"[…], time 14 day",73.6 mg/dL
same,TG,"[…], time 14 day",107.2 mg/dL
same,TP,"[…], time 14 day",5.8 g/dL
same,gamma-GTP,"[…], time 14 day",0.8 IU/L
same,A/G,"[…], time 28 day",1.5
same,ALP,"[…], time 28 day",889.4 IU/L
same,ALT,"[…], time 28 day",36.4 IU/L
same,AST,"[…], time 28 day",56.8 IU/L
same,BUN,"[…], time 28 day",15.2 mg/dL
same,CRE,"[…], time 28 day",0.5 mg/dL
same,Ca,"[…], time 28 day",10.5 mg/dL
same,Cl,"[…], time 28 day",102.8 meq/L
same,DBIL,"[…], time 28 day",0.078 mg/dL
same,GLC,"[…], time 28 day",240.2 mg/dL
same,IP,"[…], time 28 day",7.2 mg/dL
same,K,"[…], time 28 day",3.6 meq/L
same,LDH,"[…], time 28 day",155.8 IU/L
same,Na,"[…], time 28 day",141.2 meq/L
same,PL,"[…], time 28 day",132.8 mg/dL
same,RALB,"[…], time 28 day",3.5 g/dL
same,TBIL,"[…], time 28 day",0.2 mg/dL
same,TC,"[…], time 28 day",72.6 mg/dL
same,TG,"[…], time 28 day",65.4 mg/dL
same,TP,"[…], time 28 day",6 g/dL
same,gamma-GTP,"[…], time 28 day",1.2 IU/L
